Measured values reported in patent US9463330B2, “Delivery of skin care products” (INTERNATIONAL SCIENTIFIC PTY LTD, priority 2010, dated 2016).

Assays:
human skin = assay: Delivery of Curcumin into human skin by Multi-Photon Microscopy (Example 4); format: in vivo; settings: 0.5% w/w in mineral oil, one hour, volar forearm
Description: • 1) Mineral oil and a solution of Curcumin in mineral oil (0.5% w/w). • 2) 35 mm×35 mm segments of ETP008 and ETP012 magnetic materials; ETP008 being a parallel linear array of common pole pairs of 450 gauss peak flux with a centre to centre spatial separation of 4 mm; ETP012 being an oriented displaced dipolar magnetic element array created by drawing a secondary flux pattern over a linear pattern comprising 2.0 mm poles, creating a pair of displaced dipolar magnetic elements of pitch of 2.5 pairs per centimeter, with the inter-pair flux gradient being 700 gauss or 1750 gauss per centimeter and the secondary field elements being oriented at 90 degrees to the primary and consisting of parallel pairs of displaced dipolar magnetic elements of pitch of 1.5 mm, creating 3.5 pairs per centimeter, with 300 gauss per centimeter oriented flux. • 3) 35 mm×35 mm segments of a “passive” non-magnetic material which is identical to the active materials in all respects except for the presence of the magnetic field. • 4) Six healthy human subjects between the ages of 20 and 40. • 5) Multi-Photon Microscopy apparatus and computer software capable of processing Multi-Photon microscopy images. […]

human epidermis [1] = assay: In vitro diffusion of urea across human epidermal membranes in Franz-type cells (Example 5); format: in vitro ADME; settings: 5% urea gel
Description: • 1) 5% w/w urea in VersaBase Gel (PCCA, Huston, Tex.). • 2) 11 mm diameter discs of flexible magnetic array matrix (ETP008) material and “passive” non-magnetic material which are identical to the active materials in all respects except for the presence of the magnetic field. • 3) Passive occlusive material consisting of a polymer film of similar thickness and cut to the same dimensions as the active magnetic polymer material. • 4) Epidermal membranes obtained from human skin sourced from abdominal region following abdominoplasty surgery. • 5) Pyrex glass Franz-type diffusion cells (enabling permeation across epidermal membranes of cross sectional area approximately 1.18 cm^2); receptor volume approximately 3.5 mL. • 6) Phosphate buffered saline (PBS). • 7) Thermostatted water bath with magnetic stirring capability. • 8) DMAB reagent (4% w/v) prepared with conc. sulphuric acid (4% v/v) in alcohol (95%). • 9) Digital portable LCR meter (TH2821/A/B, Changzhou Tonghui Electronic Co., Ltd, China). Method Preparation of Epidermal Membranes
Epidermal membranes were obtained by the heat separation method (Kligman & Christophers, 1963 Preparation of isolated sheets of human stratum corneum. Arch. Dermatol. 88: 70-73).
• 1) The membrane was placed between the donor and receptor compartment of the cell and allowed to equilibrate for 1 h with PBS in the receptor compartment which was stirred continuously with a magnetic stirrer. • 2) PBS was placed in the donor (1 mL) and receptor (approx. 3.5 mL) compartments of the cell which were then placed in a water bath maintained at 37±0.5° C. • 3) Epidermal membrane integrity was determined by visual inspection over a bright light and electrical resistance (kΩ) measurements using a digital portable LCR meter (TH2821/A/B, Changzhou Tonghui Electronic Co., Ltd, China). The measurements were taken by immersing the stainless steel probe lead tips, one each in the donor and receptor compartments (Fasano et al, 2002 Rapid integrity assessment of rat and human epidermal membranes for in vitro dermal regulatory testing: correlation of electrical resistance with tritiated water permeability. Toxicol. In Vitro 16: 731-40). […] Spectroscopic Analyses:
Urea quantification was based on the analytical method of Knorst et al 1997 (Analytical methods for measuring urea in pharmaceutical formulations. J. Pharm. Biomed. Anal. 15: 1627-32), a modified derivatisation by p-dimethylaminobenzaldehyde (DMAB) to convert urea into a coloured compound.
Derivatisation of urea in skin diffusate employed equal volumes of sample solution and the DMAB reagent (4% w/v) which was prepared with conc. sulphuric acid (4% v/v) in alcohol (95%). In this case 200 μL of the urea sample was mixed with 200 μL of the DMAB reagent. After 10 min the absorbance of the coloured derivatised solution was measured at 420 nm using a UVmini-1240 UV-Vis spectrophotometer (Shimadzu Scientific Instruments) against an appropriate reagent blank (receptor solution processed as for skin permeation receptor solution samples). Spectrophotometric analysis was carried out for quantitative analysis of urea that permeated the skin. […] The limit of detection (LOD) and limit of quantitation (LOQ) of the assay were 0.83 and 2.5 μg/mL respectively.
The results were compiled from nine cells containing the magnetic array film and eight control cells containing the passive non-magnetic film. A comparison of the cumulative amount of urea penetrating the epidermis to the receptor solution (μg/cm^2) versus time (mins) was plotted for passive and magnetic array enhanced applications (FIG. 16).

human epidermal tissues = assay: Time dependent epidermal thickness change after 5% Urea gel, four magnetic array configurations vs passive (Example 3); format: in vivo; settings: 30 and 60 minutes
Protocol: As a further example, an additional experiment was undertaken to explore the time dependent changes in measured epidermal thickness using four different configurations of the present invention when compared to passive application.
As in previous examples, all test areas of skin were treated using a 5% Urea gel formation and occluded with Parafilm. The urea and occlusive dressings were removed at 30 minutes and 60 minutes to allow measurements to be taken, with the urea and dressing being immediately replaced after the 30 minute test. Four different arrangements of the pairs of displaced magnetic dipolar elements present invention were studied to elucidate the complex relationship between enhanced delivery to human skin and the specific arrangements of the pairs of displaced dipolar elements that make up the present invention.
The four arrangements of pairs of displaced dipolar elements used in this experiment were as follows:
Type ETP000 was a form of the present invention is which a parallel linear array of common pole pairs of 250 gauss peak flux with a centre to centre spatial separation of 2 mm.
Type ETP006 was a combination of two intersecting parallel linear common pole arrays at 90 degrees orientation to each other having a peak magnetic flux of 300 gauss and a spatial separation between pairs of 3.5 mm.
Type ETP008 was a parallel linear array of common pole pairs of 450 gauss peak flux with a centre to centre spatial separation of 4 mm.
Type ETP011 was a combination of two intersecting parallel linear common pole arrays at 90 degrees orientation to each other having a peak magnetic flux of 150 gauss and a spatial separation between pairs of 3 mm.
The segment marked Passive indicted the normal changes in epidermal thickness in response to topical and occluded application of a Urea Gel. This is considered the control.

human epidermis [2] = assay: Time dependent epidermal thickness change by OCT after Urea, two magnetic array types vs passive (Example 2); format: in vivo; settings: for increase in epidermal thickness: passive regions
Description: In a further in vivo experience, two examples of arrays comprising pairs of displaced magnetic dipolar elements of the present invention were studied to illustrate the essential requirement for the pairs of displaced magnetic dipolar elements to be correctly configured to the diamagnetic property of the active ingredient to be delivered, in addition to the dielectric properties of the target receptor barrier.
Urea was applied to skin in a similar manner to Example 1. The urea and occlusive dressings were removed at 10 minute time periods to take measurements using OTC, with the urea and occlusive dressing being immediately replaced after each set of measurements. Each site was imaged in triplicate for each time point (i.e. three sites, triplicate images, seven time points). The laser images were then analysed to determine the differential change in skin morphology in response to the penetration of urea into facial skin under the influence of two different configurations of the present invention. FIG. 12 summaries this experiment, with the thickness of the epidermis provided next to the image.
Magnetic array Type ETP000 is a magnetic array in which a parallel linear array of common pole pairs of 250 gauss peak flux with a centre to centre spatial separation of 2 mm. Magnetic array Type ETP008 is a parallel linear array of common pole pairs of 450 gauss peak flux with a centre to centre spatial separation of 4 mm.

SMILES	Curcumin concentrations in the skin compared with passive material (human skin; ETP008 magnetic material)	Curcumin concentrations in the skin compared with passive material (human skin; ETP012 magnetic material)	mean cumulative permeation over 2 h (human epidermis [1]; magnetic array material ETP008, mean±sem) [μg/cm^2]	lag time (human epidermis [1]; magnetic film array ETP008) [min]	steady state flux (human epidermis [1]; magnetic film array ETP008) [μg/cm^2·min]	lag time (human epidermis [1]; non-magnetic passive material) [min]	steady state flux (human epidermis [1]; non-magnetic passive material) [μg/cm^2·min]	mean cumulative permeation over 2 h (human epidermis [1]; non-magnetic passive material, mean±sem) [μg/cm^2]	penetration (changes in epidermal thickness) compared to passive (human epidermal tissues; Type 011 arrangement, 5% Urea gel)	penetration (changes in epidermal thickness) compared to passive (human epidermal tissues; Type ETP000, 5% Urea gel)	penetration (changes in epidermal thickness) compared to passive (human epidermal tissues; Type ETP006, 5% Urea gel)	penetration (changes in epidermal thickness) compared to passive (human epidermal tissues; Type ETP008, 5% Urea gel)	epidermal thickness change (human epidermis [2]; Magnetic array Type ETP000, 30 minutes) [%]	epidermal thickness change (human epidermis [2]; Magnetic array Type ETP000, 60 minutes) [%]	epidermal thickness change (human epidermis [2]; Magnetic array Type ETP008, 30 minutes) [%]	epidermal thickness change (human epidermis [2]; Magnetic array Type ETP008, 60 minutes) [%]	increase in epidermal thickness (human epidermis [2]; 30 minutes) [%]	increase in epidermal thickness (human epidermis [2]; 60 minutes) [%]
COc1cc(/C=C/C(=O)CC(=O)/C=C/c2ccc(O)c(OC)c2)ccc1O [Curcumin]	significant increase	significant increase	–	–	–	–	–	–	–	–	–	–	–	–	–	–	–	–
NC(N)=O [Urea]	–	–	89.54±7.34	21.13 ± 6.27	0.75±0.06	40.58 ± 3.98	0.24±0.03	20.83±2.02	decreasing normal penetration	enhanced penetrations to different degrees over time	enhanced penetrations to different degrees over time	enhanced penetrations to different degrees over time	119.5	113.25	112.6	118	103.2	110
